# Source: patent US7183299B2 (priority 2001, dated 2007)
# Assays:
# late blight on tomato = type: in vivo, Plasmopara viticola; settings: tomato (Hofuku), therapeutic effect, sprayed after inoculation, active ingredient 100 ppm, disease severity 7 days after inoculation
# [1] = test system: downy mildew (Plasmopara viticola) on grape; settings: in vivo
Compound,Control value (%) (late blight on tomato),Control value (%) [1] [%]
CCCC(=O)Nc1cccc(CON=C(c2ccccc2)c2nnnn2C)n1 [(1)-6],90,70
CC(C)C(=O)Nc1cccc(CON=C(c2ccccc2)c2nnnn2C)n1 [(1)-7],100,100
CCCCC(=O)Nc1cccc(CON=C(c2ccccc2)c2nnnn2C)n1 [(1)-8],90,70
"CCCCCC(=O)Nc1cccc(CON=C(c2ccccc2)c2nnnn2C)n1 [(1)-12, (Z)-(1-methyltetrazol-5-yl)phenylmethanoneoxime 0-(6-(hexanoylamino)pyridin-2-yl)methyloxime]",100,100
Cn1nnnc1C(=NOCc1cccc(NC(=O)CC(C)(C)C)n1)c1ccccc1 [(1)-16],100,70
CCCCCCC(=O)Nc1cccc(CON=C(c2ccccc2)c2nnnn2C)n1 [(1)-18],100,100
Cn1nnnc1C(=NOCc1cccc(NC(=O)C2CC2)n1)c1ccccc1 [(1)-21],90,70
CC(C)C(=O)Nc1nc(CON=C(c2ccccc2)c2nnnn2C)cs1 [(2)-7],100,90
Cn1nnnc1C(=NOCc1csc(NC(=O)C(C)(C)C)n1)c1ccccc1 [(2)-11],100,100
CCCCCC(=O)Nc1nc(CON=C(c2ccccc2)c2nnnn2C)cs1 [(2)-12],100,90
Cn1nnnc1C(=NOCc1csc(NC(=O)CC(C)(C)C)n1)c1ccccc1 [(2)-16],100,90
CCOC(=O)Nc1cccc(CON=C(c2ccccc2)c2nnnn2C)n1 [(3)-2],90,70
CCCOC(=O)Nc1cccc(CON=C(c2ccccc2)c2nnnn2C)n1 [(3)-3],100,90
CC(C)OC(=O)Nc1cccc(CON=C(c2ccccc2)c2nnnn2C)n1 [(3)-4],100,90
CCCCOC(=O)Nc1cccc(CON=C(c2ccccc2)c2nnnn2C)n1 [(3)-5],100,100
Cn1nnnc1C(=NOCc1cccc(NC(=O)OC(C)(C)C)n1)c1ccccc1 [(3)-8],100,100
CCCCCOC(=O)Nc1cccc(CON=C(c2ccccc2)c2nnnn2C)n1 [(3)-9],100,100
CCCCCCOC(=O)Nc1cccc(CON=C(c2ccccc2)c2nnnn2C)n1 [(3)-15],100,100
CCCCCCCOC(=O)Nc1cccc(CON=C(c2ccccc2)c2nnnn2C)n1 [(3)-16],100,100
Cn1nnnc1C(=NOCc1cccc(NC(=O)OCc2ccccc2)n1)c1ccccc1 [(3)-18],100,100
CCC(C)(C)OC(=O)Nc1cccc(CON=C(c2ccccc2)c2nnnn2C)n1 [(3)-21],100,70
Cn1nnnc1C(=NOCc1cccc(NC(=O)OC2CCCC2)n1)c1ccccc1 [(3)-22],100,100
Cn1nnnc1C(=NOCc1cccc(NC(=O)OC2CCCCC2)n1)c1ccccc1 [(3)-23],100,80
CCCCCCOC(=O)Nc1nc(CON=C(c2ccccc2)c2nnnn2C)cs1 [(4)-15],80,70
Cn1nnnc1C(=NOCc1csc(NC(=O)OCc2ccccc2)n1)c1ccccc1 [(4)-18],90,70

Compound,Control value (%) (late blight on tomato),Control value (%) [1] [%]
Cn1nnnc1C(=NOCc1cccc(NC(=O)Cc2ccccc2)n1)c1ccccc1 [(5)-12],100,100
Cn1nnnc1C(=NOCc1cccc(NC(=O)c2ccccc2)n1)c1ccccc1 [(5)-14],100,90
CCOCC(=O)Nc1nc(CON=C(c2ccccc2)c2nnnn2C)cs1 [(6)-2],80,70
CSCCC(=O)Nc1nc(CON=C(c2ccccc2)c2nnnn2C)cs1 [(6)-6],80,70
C=C(C)C(=O)Nc1nc(CON=C(c2ccccc2)c2nnnn2C)cs1 [(6)-7],100,100
CCCOCCC(=O)Nc1nc(CON=C(c2ccccc2)c2nnnn2C)cs1 [(6)-15],90,70
CCCC(=O)Nc1cccc(CON=C(c2ccc(Cl)cc2)c2nnnn2C)n1 [(7)-1],80,70
Cn1nnnc1C(=NOCc1cccc(NC(=O)C2CC2)n1)c1ccc(Cl)cc1 [(7)-3],80,80
COc1ccc(C(=NOCc2cccc(NC(=O)C3CC3)n2)c2nnnn2C)cc1 [(7)-11],80,70
CCCCCC(=O)Nc1cccc(CON=C(c2ccc(C)cc2)c2nnnn2C)n1 [(7)-12],100,100
CC(C)C(=O)Nc1nc(CON=C(c2ccc(Cl)cc2)c2nnnn2C)cs1 [(8)-2],90,70
Cn1nnnc1C(=NOCc1csc(NC(=O)C(C)(C)C)n1)c1cccc(F)c1 [(8)-7],80,70
COc1ccc(C(=NOCc2csc(NC(=O)C(C)(C)C)n2)c2nnnn2C)cc1 [(8)-10],90,70
Cn1nnnc1C(=NOCc1csc(NC(=O)C(C)(C)C)n1)c1ccc(Cl)cc1 [(8)-17],80,90
Cn1nnnc1C(=NOCc1cccc(NC(=O)OC(C)(C)C)n1)c1cccc(F)c1 [(9)-1],100,100
CC(C)OC(=O)Nc1cccc(CON=C(c2ccc(F)cc2)c2nnnn2C)n1 [(9)-2],80,70
Cn1nnnc1C(=NOCc1cccc(NC(=O)OC(C)(C)C)n1)c1ccc(F)cc1 [(9)-3],90,70
Cc1ccc(C(=NOCc2cccc(NC(=O)OC(C)(C)C)n2)c2nnnn2C)cc1 [(9)-4],100,100
CCCCCOC(=O)Nc1cccc(CON=C(c2ccc(C)cc2)c2nnnn2C)n1 [(9)-5],100,100
CCCOC(=O)Nc1cccc(CON=C(c2cccc(F)c2)c2nnnn2C)n1 [(9)-6],100,70
CCCCCC(=O)Nc1cccc(CON=C(c2cccc(C)c2)c2nnnn2C)n1 [(9)-7],100,100
CCC(C)(C)OC(=O)Nc1cccc(CON=C(c2ccc(C)cc2)c2nnnn2C)n1 [(9)-9],100,100
CCCCCOC(=O)Nc1cccc(CON=C(c2ccccc2C)c2nnnn2C)n1 [(9)-10],100,100
CCCCOC(=O)Nc1cccc(CON=C(c2ccccc2C)c2nnnn2C)n1 [(9)-11],100,100
